Results: patent publication US6737383B1, “Herbicidal oxadiazolidines” (priority 1999, dated 2004)

Assays:
Alexandergrass = test: Test D Alexandergrass; type: in vivo, Brachiaria plantaginea; settings: Preemergence, 0 to 100 scale
Summary of the method: (§1)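 Greenhouse pots, sandy loam, single species per pot. Preemergence tests: soil-surface application ≤1 day after planting. Compound formulated in non-phytotoxic solvent with surfactant. Visual rating 14–21 DAT, scale 0–100.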

Green foxtail [1] = test: Test D green foxtail; type: in vivo; settings: Preemergence, 0 to 100 scale
Summary of the method: as §1

winter barley = test: Test E winter barley; type: in vivo, Hordeum vulgare; settings: Preemergence
winter wheat [2] = test: Test E winter wheat; type: in vivo, Triticum aestivum; settings: Preemergence
common pursiane = test: Test D common purslane; type: in vivo, Portulaca oleracea; settings: Preemergence, 0 to 100 scale
Summary of the method: as §1

common ragweed = test: Test D common ragweed; type: in vivo, Ambrosia elatior; settings: Preemergence, 0 to 100 scale
Summary of the method: as §1

wild oat = test: Test E wild oat; type: in vivo, Avena fatua; settings: Preemergence
soybean = test: Test B pre/postemergence soybean; type: in vivo, Glycine max
Summary of the method: (§2)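 Response is a visual 0-to-10 score relative to untreated plants, where 0 means no effect and 10 means complete control, taken twelve to sixteen days after application. Treatments went onto soil at planting and onto foliage of 1- to 4-leaf plants, using a surfactant-containing non-phytotoxic solvent.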

duck salad = test: Test B flood test duck salad; type: in vivo, Heteranthera limosa
Summary of the method: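 Each value is a visual injury score relative to controls, with 10 meaning complete control and 0 no effect. Evaluation took place twelve to sixteen days after the 2-leaf-stage plants were treated and kept in the greenhouse.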

blackgrass = test: Test E blackgrass; type: in vivo, Alopecurus myosuroides; settings: Preemergence
wheat = test: Test B pre/postemergence wheat; type: in vivo, Triticum aestivum
Summary of the method: as §2

winter wheat [3] = test: Test E winter wheat; type: in vivo, Triticum aestivum; settings: Postemergence; for Plant response rating, Wheat (winter): 0 to 100 scale
Summary of the method: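 For postemergence, sowings are timed so plants reach the 1- to 4-leaf stage at spraying. Test compound is applied in a surfactant-containing solvent mixture that is non-phytotoxic. Response is judged by eye against untreated controls after approximately 21 to 28 days.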

purple nutsedge = test: Test B pre/postemergence purple nutsedge; type: in vivo, Cyperus rotundus
Summary of the method: as §2

surinam grass = test: Test D surinam grass; type: in vivo, Brachiaria decumbens; settings: Preemergence, 0 to 100 scale
Summary of the method: as §1

Italian ryegrass = test: Test E Italian ryegrass; type: in vivo, Lolium multiflorum; settings: Preemergence
green foxtail [4] = test: Test E green foxtail; type: in vivo, Setaria viridis; settings: Preemergence
tall mallow = test: Test D tall mallow; type: in vivo, Malva sylvestris; settings: Preemergence, 0 to 100 scale
Summary of the method: as §1

[5] = Rate 16 g/ha, 0 no injury, 100 complete control
[6] = Rate 32 g/ha, 0 no injury, 100 complete control
[7] = Rate 64 g/ha, 0 no injury, 100 complete control
[8] = Rate 125 g/ha, 0 no injury, 100 complete control
[9] = Rate 31 g/ha, 0 to 100 scale, 0 no effect, 100 complete control
[10] = Rate 62 g/ha, 0 to 100 scale, 0 no effect, 100 complete control
[11] = Rate 125 g/ha, 0 to 100 scale (0 no effect, 100 complete control)
[12] = Rate 500 g/ha, 0 to 100 scale where 0 is no effect and 100 is complete control
[13] = Postemergence, Rate 125 g/ha, scale of 0 to 10 where 0 is no effect and 10 is complete control
[14] = Preemergence, Rate 31 g/ha, visual rating, scale 0 to 10 (0 no effect, 10 complete control)
[15] = Preemergence, Rate 62 g/ha, scale 0 to 10 (0 no effect, 10 complete control)
[16] = Preemergence, Rate 125 g/ha, 0 is no effect, 10 is complete control
[17] = Preemergence, Rate 250 g/ha, scale 0 to 10, 0 is no effect, 10 is complete control
[18] = Preemergence, Rate 500 g/ha, scale 0 to 10 (0 no effect, 10 complete control)
[19] = Rate 62 g/ha, Postemergence, scale of 0 to 10 where 0 is no effect and 10 is complete control
[20] = Rate 250 g/ha, Postemergence, scale 0 to 10, 0 is no effect, 10 is complete control
[21] = Rate 500 g/ha, Postemergence, scale 0 to 10

## C=CCn1c(=O)on(C(=O)N(c2ccc(F)cc2)C(C)C)c1=O [Compound 146]
Alexandergrass; [5]
  Plant response rating, Alexandergrass: 65
Alexandergrass; [6]
  Plant response rating, Alexandergrass: 85
Alexandergrass; [7]
  Plant response rating, Alexandergrass: 95
Alexandergrass; [8]
  Plant response rating, Alexandergrass: 98
Alexandergrass; Rate 250 g/ha
  Plant response rating, Alexandergrass: 100
Alexandergrass; Rate 500 g/ha
  Plant response rating, Alexandergrass: 100
Green foxtail [1]; [7]
  Green foxtail plant response rating: 100
  Plant response rating, Green foxtail: 100
Green foxtail [1]; [8]
  Green foxtail plant response rating: 100
  Plant response rating, Green foxtail: 100
Green foxtail [1]; Rate 250 g/ha
  Plant response rating, Green foxtail: 100
Green foxtail [1]; Rate 500 g/ha
  Plant response rating, Green foxtail: 100
Winter barley; [9]
  Plant response rating, Barley (winter): 20
Winter barley; [10]
  Plant response rating, Barley (winter): 10
Winter barley; [11]
  Plant response rating, Barley (winter): 10
Winter barley; Rate 250 g/ha
  Barley (winter) plant response rating (0 to 100 scale): 10
Winter barley; [12]
  Plant response rating, Barley (winter): 95
Winter wheat [2]; [9]
  Plant response rating, Wheat (winter): 20
Winter wheat [2]; [10]
  Plant response rating, Wheat (winter): 0
Winter wheat [2]; [11]
  Plant response rating, Wheat (winter): 10
Winter wheat [2]; Rate 250 g/ha
  Wheat (winter) plant response rating (0 to 100 scale): 0
Winter wheat [2]; [12]
  Plant response rating, Wheat (winter): 100
Common pursiane; [5]
  Plant response rating, C. purslane: 0
Common pursiane; [6]
  Plant response rating, C. purslane: 0
Common pursiane; [7]
  Plant response rating, C. purslane: 0
Common pursiane; [8]
  Plant response rating, C. purslane: 0
Common pursiane; Rate 250 g/ha
  Plant response rating, C. purslane: 0
Common pursiane; Rate 500 g/ha
  Plant response rating, C. purslane: 0
Common ragweed; [5]
  Plant response rating, C. ragweed: 0
Common ragweed; [6]
  Plant response rating, C. ragweed: 0
Common ragweed; [7]
  Plant response rating, C. ragweed: 0
Common ragweed; [8]
  Plant response rating, C. ragweed: 0
Common ragweed; Rate 250 g/ha
  Plant response rating, C. ragweed: 60
Common ragweed; Rate 500 g/ha
  Plant response rating, C. ragweed: 75
Wild oat; [9]
  Plant response rating, Wild oat: 40
Wild oat; [10]
  Plant response rating, Wild oat: 25
Wild oat; [11]
  Plant response rating, Wild oat: 30
Wild oat; Rate 250 g/ha
  Wild oat plant response rating (0 to 100 scale): 50
Wild oat; [12]
  Plant response rating, Wild oat: 85
soybean; [13]
  Soybean plant response rating: 6
soybean; [14]
  Soybean plant response rating: 0
soybean; [15]
  Soybean plant response rating: 0
soybean; [16]
  Soybean plant response rating (0 to 10 scale): 0
soybean; [17]
  Soybean plant response rating: 2
soybean; [18]
  Soybean plant response rating: 4
soybean; [19]
  Soybean plant response rating: 3
soybean; [20]
  Plant response rating, Soybean: 6
soybean; [21]
  Soybean plant response rating: 8
Duck salad; Postemergence (flood test species), Rate 125 g/ha, scale of 0 to 10 where 0 is no effect and 10 is complete control
  Ducksalad plant response rating: 3
Duck salad; Rate 31 g/ha, Postemergence section (flood test species), scale 0 to 10
  Ducksalad plant response rating: 0
Duck salad; Rate 62 g/ha, Postemergence section, flood test species, scale of 0 to 10 where 0 is no effect and 10 is complete control
  Ducksalad plant response rating: 2
Duck salad; Rate 62 g/ha, headed Pre-emergence (flood test species), scale 0 to 10 (0 no effect, 10 complete control)
  Ducksalad plant response rating: 0
Duck salad; Rate 125 g/ha, Pre-emergence, flood test species, scale 0 to 10 where 0 is no effect and 10 is complete control
  Ducksalad plant response rating: 0
Duck salad; Rate 250 g/ha, Postemergence (flood test), scale 0 to 10, 0 is no effect, 10 is complete control
  Plant response rating, Ducksalad: 5
Duck salad; Rate 250 g/ha, Pre-emergence, flood-test species, scale 0 to 10, 0 is no effect, 10 is complete control
  Ducksalad plant response rating: 0
Duck salad; Rate 500 g/ha, headed Pre-emergence (flood test species), scale 0 to 10 (0 no effect, 10 complete control)
  Plant response rating, Ducksalad: 1
Duck salad; Rate 500 g/ha, listed under Postemergence (flood test species), scale 0 to 10
  Ducksalad plant response rating: 6
blackgrass; [9]
  Plant response rating, Blackgrass: 20
blackgrass; [10]
  Plant response rating, Blackgrass: 70
blackgrass; [11]
  Plant response rating, Blackgrass: 85
blackgrass; Rate 250 g/ha
  Blackgrass plant response rating (0 to 100 scale): 90
blackgrass; [12]
  Plant response rating, Blackgrass: 70
wheat; [13]
  Wheat plant response rating: 2
wheat; [14]
  Wheat plant response rating: 0
wheat; [15]
  Wheat plant response rating: 2
wheat; [16]
  Wheat plant response rating (0 to 10 scale): 2
wheat; [17]
  Wheat plant response rating: 8
wheat; [18]
  Wheat plant response rating: 8
wheat; [19]
  Wheat plant response rating: 0
wheat; [20]
  Plant response rating, Wheat: 5
wheat; [21]
  Wheat plant response rating: 6
Winter wheat [3]; Rate 31 g/ha, 0 no effect, 100 complete control
  Plant response rating, Wheat (winter): 30
Winter wheat [3]; Rate 62 g/ha
  Plant response rating, Wheat (winter): 20
Winter wheat [3]; Rate 125 g/ha
  Plant response rating, Wheat (winter): 40
Winter wheat [3]; Rate 500 g/ha, 0 no effect, 100 complete control
  Plant response rating, Wheat (winter): 20
Winter wheat [3]; Rate 250 g/ha, 0 to 100 scale where 0 is no effect and 100 is complete control
  Wheat (winter) plant response rating: 60
Purple nutsedge; [13]
  Nutsedge plant response rating: 0
Purple nutsedge; [14]
  Nutsedge plant response rating: 0
Purple nutsedge; [15]
  Nutsedge plant response rating: 0
Purple nutsedge; [16]
  Nutsedge plant response rating (0 to 10 scale): 0
Purple nutsedge; [17]
  Nutsedge plant response rating: 0
Purple nutsedge; [18]
  Nutsedge plant response rating: 3
Purple nutsedge; Rate 31 g/ha, Postemergence, scale 0 to 10
  Nutsedge plant response rating: 0
Purple nutsedge; [19]
  Nutsedge plant response rating: 0
Purple nutsedge; [20]
  Plant response rating, Nutsedge: 0
Purple nutsedge; [21]
  Nutsedge plant response rating: 6
Surinam grass; [5]
  Plant response rating Surinam grass: 40
Surinam grass; [6]
  Plant response rating Surinam grass: 60
Surinam grass; [7]
  Surinam grass plant response rating: 60
Surinam grass; [8]
  Surinam grass plant response rating: 100
Surinam grass; Rate 250 g/ha
  Plant response rating Surinam grass: 100
Surinam grass; Rate 500 g/ha
  Plant response rating Surinam grass: 100
Italian ryegrass; [9]
  Plant response rating, I. Ryegrass: 50
Italian ryegrass; [10]
  Plant response rating, I. Ryegrass: 40
Italian ryegrass; [11]
  Plant response rating, I. Ryegrass: 50
Italian ryegrass; Rate 250 g/ha
  I. Ryegrass plant response rating (0 to 100 scale): 60
Italian ryegrass; [12]
  Plant response rating, I. Ryegrass: 90
Green foxtail [4]; [9]
  Plant response rating, Green foxtail: 50
Green foxtail [4]; [10]
  Plant response rating, Green foxtail: 55
Green foxtail [4]; [11]
  Plant response rating, Green foxtail: 50
Green foxtail [4]; Rate 250 g/ha
  Green foxtail plant response rating (0 to 100 scale): 65
Green foxtail [4]; [12]
  Plant response rating, Green foxtail: 100
Tall mallow; [5]
  Plant response rating, Tall Mallow: 40
Tall mallow; [6]
  Plant response rating, Tall Mallow: 40
Tall mallow; [7]
  Tall Mallow plant response rating: 50
Tall mallow; [8]
  Tall Mallow plant response rating: 80
Tall mallow; Rate 250 g/ha
  Plant response rating, Tall Mallow: 90
Tall mallow; Rate 500 g/ha
  Plant response rating, Tall Mallow: 100
